Experiments:
[1] = test system: Puccinia recondita f. sp. Tritici; assay: Fungicidal activity against Puccinia recondita f. sp. Tritici / wheat / leaf disc preventative (brown rust); type: in vivo; conditions: foliar, 200 ppm in the applied formulation, wheat leaf segments cv. Kanzler, inoculated 1 day after application, vs untreated control, read-out: disease control
Procedure, shortened: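 Sprayed at 200 ppm one day ahead of spore inoculation, wheat leaf segments of cultivar Kanzler sat on agar under 19° C., 75% relative humidity and alternating 12-hour light and dark. Efficacy was taken as percent disease control relative to untreated segments after 7 to 9 days.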

[2] = test system: Puccinia recondita f. sp. Tritici; assay: Fungicidal activity against Puccinia recondita f. sp. Tritici / wheat / leaf disc curative (brown rust); type: in vivo; conditions: foliar, 24 h, 200 ppm in the applied formulation, wheat leaf segments cv. Kanzler, applied 1 day after inoculation, vs untreated control, read-out: disease control
Method: Leaf disks or leaf segments of various plant species are cut from plants grown in a greenhouse. The cut leaf disks or segments are placed in multiwell plates (24-well format) onto water agar. The leaf disks are sprayed with a test solution before (preventative) or after (curative) inoculation. Compounds to be tested are prepared as DMSO solutions (max. 10 mg/ml) which are diluted to the appropriate concentration with 0.025% Tween20 just before spraying. The inoculated leaf disks or segments are incubated under defined conditions (temperature, relative humidity, light, etc.) according to the respective test system. A single evaluation of disease level is carried out 3 to 14 days after inoculation, depending on the pathosystem. Percent disease control relative to the untreated check leaf disks or segments is then calculated.
Wheat leaf segments cv. Kanzler are placed on agar in multiwell plates (24-well format). The leaf segments are then inoculated with a spore suspension of the fungus. Plates were stored in darkness at 19° C. and 75% relative humidity. The formulated test compound diluted in water was applied 1 day after inoculation. The leaf segments were incubated at 19° C. and 75% relative humidity under a light regime of 12 hours light/12 hours darkness in a climate cabinet and the activity of a compound was assessed as percent disease control compared to untreated when an appropriate level of disease damage appears in untreated check leaf segments (6 to 8 days after application).
The following compounds at 200 ppm in the applied formulation give at least 80% disease control in this test when compared to untreated control leaf disks under the same conditions, which show extensive disease development.

Phakopsora pachyrhizi = assay: Fungicidal activity against Phakopsora pachyrhizi / soybean / leaf disc preventative (Asian soybean rust); type: in vivo; conditions: foliar, 200 ppm in the applied formulation, soybean leaf disks, vs untreated control, read-out: disease control
Procedure, shortened: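 Soybean leaf discs on water agar sprayed with compound diluted in water, then inoculated with spores on the lower surface one day later. Kept 24-36 h dark, 20 °C, 75% rh, then 12 h light/12 h dark. Percent disease control versus untreated scored 12-14 days after application.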

[3] = test system: Glomerella lagenarium (Colletotrichum lagenarium); assay: Fungicidal activity against Glomerella lagenarium (Colletotrichum lagenarium) liquid culture / cucumber / preventative (anthracnose); type: cell-based; conditions: Colletotrichum orbiculare, 72 h; 20 ppm in the applied formulation; liquid culture (PDB), growth inhibition measured photometrically 3 to 4 days after application; vs untreated control; read-out: disease control
Procedure, shortened: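 In liquid culture, cryo-stored conidia in potato dextrose broth were exposed to compound delivered from DMSO solution. Growth inhibition was measured photometrically after 3 to 4 days at 24° C.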

CON=C(C)CNC(=O)c1ccc(-c2noc(C(F)(F)F)n2)cc1 [Compound 1.133, N-(2-methoxyimino-propyl)-4-[5-(trifluoromethyl)-1,2,4-oxadiazol-3-yl]benzamide]
≥ 80%: pest or weed control at 200 ppm [1] | pest or weed control at 200 ppm [2] | pest or weed control at 200 ppm (Phakopsora pachyrhizi) | inhibition of growth at 20 ppm [3]

O=C(NCC=NOCC=CCl)c1ccc(-c2noc(C(F)(F)F)n2)cc1 [Compound 1.78, N-[2-(3-chloroallyloxyimino)ethyl]-4-[5-(trifluoromethyl)-1,2,4-oxadiazol-3-yl]benzamide]
≥ 80%: pest or weed control at 200 ppm [1] | pest or weed control at 200 ppm [2] | pest or weed control at 200 ppm (Phakopsora pachyrhizi) | inhibition of growth at 20 ppm [3]

C=CCON=C(C)CNC(=O)c1ccc(-c2noc(C(F)(F)F)n2)cc1 [Compound 1.135, N-(2-allyloxyimino-propyl)-4-[5-(trifluoromethyl)-1,2,4-oxadiazol-3-yl]benzamide]
≥ 80%: pest or weed control at 200 ppm [1] | pest or weed control at 200 ppm [2] | pest or weed control at 200 ppm (Phakopsora pachyrhizi) | inhibition of growth at 20 ppm [3]

CC(C=NOCC=CCl)NC(=O)c1ccc(-c2noc(C(F)(F)F)n2)cc1 (centres unmarked) [Compound 1.33, N-[2-(3-chloroallyloxy-imino)-1-methyl-ethyl]-4-[5-(trifluoromethyl)-1,2,4-oxadiazol-3-yl]benzamide]
≥ 80%: pest or weed control at 200 ppm [1] | pest or weed control at 200 ppm [2] | pest or weed control at 200 ppm (Phakopsora pachyrhizi) | inhibition of growth at 20 ppm [3]

CC(C=NOC1COC1)NC(=O)c1ccc(-c2noc(C(F)(F)F)n2)cc1 (centres unmarked) [Compound 1.58, N-[1-methyl-2-(oxetan-3-yloxyimino)ethyl]-4-[5-(trifluoromethyl)-1,2,4-oxadiazol-3-yl]benzamide]
≥ 80%: pest or weed control at 200 ppm [1] | pest or weed control at 200 ppm [2] | pest or weed control at 200 ppm (Phakopsora pachyrhizi) | inhibition of growth at 20 ppm [3]

O=C(NCC=NOC1CCCCO1)c1ccc(-c2noc(C(F)(F)F)n2)cc1 (centres unmarked) [Compound 1.70, N-(2-tetrahydropyran-2-yloxyiminoethyl)-4-[5-(trifluoromethyl)-1,2,4-oxadiazol-3-yl]benzamide]
≥ 80%: pest or weed control at 200 ppm [1] | pest or weed control at 200 ppm [2] | pest or weed control at 200 ppm (Phakopsora pachyrhizi) | inhibition of growth at 20 ppm [3]

CCCON=C(C)CNC(=O)c1ccc(-c2noc(C(F)(F)F)n2)cc1 [Compound 1.116, N-(2-propoxyimino-propyl)-4-[5-(trifluoromethyl)-1,2,4-oxadiazol-3-yl]benzamide]
≥ 80%: pest or weed control at 200 ppm [1] | pest or weed control at 200 ppm [2] | pest or weed control at 200 ppm (Phakopsora pachyrhizi) | inhibition of growth at 20 ppm [3]

C=C(Cl)CON=CCNC(=O)c1ccc(-c2noc(C(F)(F)F)n2)cc1 [Compound 1.100, N-[2-(2-chloroallyloxy-imino)ethyl]-4-[5-(trifluoromethyl)-1,2,4-oxadiazol-3-yl]benzamide]
≥ 80%: pest or weed control at 200 ppm [1] | pest or weed control at 200 ppm [2] | pest or weed control at 200 ppm (Phakopsora pachyrhizi) | inhibition of growth at 20 ppm [3]

CC(C=NOC/C=C\Cl)NC(=O)c1ccc(-c2noc(C(F)(F)F)n2)cc1 (centres unmarked) [Compound 1.36, N-[2-[(Z)-3-chloroallyloxy]imino-1-methyl-ethyl]-4-[5-(trifluoromethyl)-1,2,4-oxadiazol-3-yl]benzamide]
≥ 80%: pest or weed control at 200 ppm [1] | pest or weed control at 200 ppm [2] | pest or weed control at 200 ppm (Phakopsora pachyrhizi) | inhibition of growth at 20 ppm [3]

CCON=CC(C)NC(=O)c1ccc(-c2noc(C(F)(F)F)n2)cc1 (centres unmarked) [Compound 1.43, N-(2-ethoxyimino-1-methyl-ethyl)-4-[5-(trifluoromethyl)-1,2,4-oxadiazol-3-yl]benzamide]
≥ 80%: pest or weed control at 200 ppm [1] | pest or weed control at 200 ppm [2] | pest or weed control at 200 ppm (Phakopsora pachyrhizi) | inhibition of growth at 20 ppm [3]

O=C(NCC=NOC/C=C\Cl)c1ccc(-c2noc(C(F)(F)F)n2)cc1 [Compound 1.81, N-[2-[(Z)-3-chloroallyloxy]iminoethyl]-4-[5-(trifluoromethyl)-1,2,4-oxadiazol-3-yl]benzamide]
≥ 80%: pest or weed control at 200 ppm [1] | pest or weed control at 200 ppm [2] | pest or weed control at 200 ppm (Phakopsora pachyrhizi) | inhibition of growth at 20 ppm [3]

CC(CNC(=O)c1ccc(-c2noc(C(F)(F)F)n2)cc1)=NOC1COC1 [Compound 1.146, N-[2-(oxetan-3-yloxyimino)propyl]-4-[5-(trifluoromethyl)-1,2,4-oxadiazol-3-yl]benzamide]
≥ 80%: pest or weed control at 200 ppm [1] | pest or weed control at 200 ppm [2] | pest or weed control at 200 ppm (Phakopsora pachyrhizi) | inhibition of growth at 20 ppm [3]

CO/N=C\NC(=O)c1ccc(-c2noc(C(F)(F)F)n2)cc1 [Compound 1.5, N-[(Z)-methoxyiminomethyl]-4-[5-(trifluoromethyl)-1,2,4-oxadiazol-3-yl]benzamide]
≥ 80%: pest or weed control at 200 ppm [1] | pest or weed control at 200 ppm [2] | pest or weed control at 200 ppm (Phakopsora pachyrhizi) | inhibition of growth at 20 ppm [3]

CC(C)(C)ON=CCNC(=O)c1ccc(-c2noc(C(F)(F)F)n2)cc1 [Compound 1.89, N-(2-tert-butoxyiminoethyl)-4-[5-(trifluoromethyl)-1,2,4-oxadiazol-3-yl]benzamide]
≥ 80%: pest or weed control at 200 ppm [1] | pest or weed control at 200 ppm [2] | pest or weed control at 200 ppm (Phakopsora pachyrhizi) | inhibition of growth at 20 ppm [3]

CC(CNC(=O)c1ccc(-c2noc(C(F)(F)F)n2)cc1)=NO[C@@H](C)C(=O)O [Compound 1.120, (2S)-2-[[1-methyl-2-[[4-[5-(trifluoromethyl)-1,2,4-oxadiazol-3-yl]benzoyl]amino]ethylidene]amino] oxypropanoic acid]
≥ 80%: pest or weed control at 200 ppm [1] | pest or weed control at 200 ppm [2] | inhibition of growth at 20 ppm [3]

CC(C=NO[C@H](C)C(=O)O)NC(=O)c1ccc(-c2noc(C(F)(F)F)n2)cc1 (stereo partly drawn) [Compound 1.29, (2R)-2-[2-[[4-[5-(trifluoromethyl)-1,2,4-oxadiazol-3-yl]benzoyl]amino]propylideneamino] oxypropanoic acid]
≥ 80%: pest or weed control at 200 ppm [1] | pest or weed control at 200 ppm [2] | inhibition of growth at 20 ppm [3]

CC(C=NOCCN)NC(=O)c1ccc(-c2noc(C(F)(F)F)n2)cc1 (centres unmarked) [Compound 1.21, N-[2-(2-aminoethoxy-imino)-1-methyl-ethyl]-4-[5-(trifluoromethyl)-1,2,4-oxadiazol-3-yl]benzamide]
≥ 80%: pest or weed control at 200 ppm [1] | pest or weed control at 200 ppm [2] | pest or weed control at 200 ppm (Phakopsora pachyrhizi)

CC(C=NOC(C)C(=O)O)NC(=O)c1ccc(-c2noc(C(F)(F)F)n2)cc1 (centres unmarked) [Compound 1.37, 2-[2-[[4-[5-(trifluoromethyl)-1,2,4-oxadiazol-3-yl]benzoyl]amino]propylideneamino] oxypropanoic acid]
≥ 80%: pest or weed control at 200 ppm [1] | pest or weed control at 200 ppm [2] | inhibition of growth at 20 ppm [3]

CC(C=NOCC(=O)O)NC(=O)c1ccc(-c2noc(C(F)(F)F)n2)cc1 (centres unmarked) [Compound 1.20, 2-[2-[[4-[5-(trifluoromethyl)-1,2,4-oxadiazol-3-yl]benzoyl]amino]propylidene-amino] oxyacetic acid]
≥ 80%: pest or weed control at 200 ppm [1] | pest or weed control at 200 ppm [2] | inhibition of growth at 20 ppm [3]
